Measurements published in patent US10363299B2, “Compositions and methods for preventing and treating rhinovirus infections” (priority 2015, dated 2019).
Values joined by “and” are separate entries in the source; they are usually repeats but may differ in a detail not shown here. Identical values can stand only once.

How the values were obtained:
Assay type in all cases: cell-based, human
RV-specific CD4+ T cells [1] = test: Direct ex vivo pMHCII tetramer staining of non-stimulated PBMCs; design: key to Validated: Y means validated; details: for Ex Vivo Frequency (# per 10^6 CD4): directly ex vivo, without culture, one value per subject; for Validated: reliable ex vivo signal
Text: (§1) Peptide libraries consisting of 20mers with a 12 amino acid overlap were generated to span the VP1, VP2 and VP4 protein sequences of RV-A16, and VP1 and VP2 protein sequences of RV-A39 (UniprotKB accession # Q82122, Q5XLP5). […] Biologically relevant pMHCII complexes were identified by tetramer-guided epitope mapping (TGEM). This involved 2 steps: First, PBMC cultures established from subjects with known HLA-DR types were stimulated with RV peptide pools derived from VP1, VP2, or VP4, and then stained with pMHCII tetramer pools composed of HLA-DR molecules corresponding to those expressed in the test subject; Second, positive signals were de-convoluted by repeating and staining with single-peptide tetramers. Tetramers that gave strong positive signals (˜1% of total CD4+ T cells) in the single peptide-tetramer screen in more than one subject, were then re-tested for their ability to detect RV-specific CD4+ T cells in non-stimulated PBMCs (denoted as ex vivo analysis) in multiple subjects.
(§2) All experiments were performed in subjects expressing HLA-DR molecules corresponding to the selected tetramer. Precursor frequencies of circulating tetramer+ cells were then calculated by established methods. Tetramer+ cells were phenotyped for surface markers by staining PBMCs with PE-conjugated tetramers, labeling with anti-PE magnetic beads, enriching with an AutoMACS separator (Miltenyi Biotec, Auburn, Calif., USA), and then counterstaining for surface markers. A tetramer displaying an irrelevant peptide, GAD555-567, was used as a staining control. For simplicity, identified RV-A16 peptide epitopes were given a numerical designation.

CD4+ T cells = test: Tetramer-guided epitope mapping (TGEM): pMHCII tetramer staining of PBMC cultures stimulated with RV peptides; details: one value per subject
Text: as §1, §2

RV-specific CD4+ T cells [2] = test: Assay to assess T-cell cross-reactivity (14-day peptide stimulation of PBMCs, tetramer and cytokine staining); details: PBMCs from HLA-DR*0401+ subjects stimulated 14 days
Description: RV-specific CD4+ T cells were expanded in vitro using established methods. Briefly, PBMCs from HLA-DRB 1*0401+ subjects were stimulated with RV-A39 VP2169-188, or else unstimulated, for 14 days. Supplemental IL-2 (10 U/ml) was given days 7-14. Cells were then stained with RV tetramers and re-stimulated with PMA and ionomycin in the presence of Brefeldin A before staining for intracellular cytokines. Cells were analyzed on a BD LSR Fortessa (UVA Flow Cytometry Core Facility) and data analysis was performed using FlowJo version 9.3.3 (Tree Star Inc., Ashland, Oreg.). Analysis and presentation of distributions was performed using SPICE version 5.3, downloaded from a National Institutes of Health website.

[3] = HLA allele 1*0101 tetramer, tetramer-positive CD4+ T cells in peptide-stimulated PBMC cultures
[4] = HLA allele 1*0401 tetramer, peptide-stimulated PBMC cultures
[5] = HLA allele 1*0404 tetramer, peptide-stimulated PBMC cultures
[6] = HLA allele 1*0701 tetramer, peptide-stimulated PBMC cultures
[7] = HLA allele 1*1501 tetramer, peptide-stimulated PBMC cultures
[8] = HLA allele 1*1101 tetramer, peptide-stimulated PBMC cultures

HIVMQYMYVPPGAPIPTTRN [VP1P18] was tested. Which “Ex Vivo Frequency (# per 10^6 CD4)” value (RV-specific CD4+ T cells [1]; HLA allele 1*0401 tetramer) did it give?
Its value is 2 # per 10^6 CD4.

What about the “Ex Vivo Frequency (# per 10^6 CD4)” value (RV-specific CD4+ T cells [1]; HLA allele 1*0404 tetramer) of the same sequence?
Its value is 247 # per 10^6 CD4 and 10 # per 10^6 CD4 and 52 # per 10^6 CD4 and 5 # per 10^6 CD4.

What about the Validated (RV-specific CD4+ T cells [1]; HLA allele 1*0404 tetramer) of the same sequence?
The Validated was “Y”.

And the “In Vitro Frequency (% CD4)” value (CD4+ T cells; [3])?
The value was 3.51 % CD4 and 0 % CD4 (2×).

And the “In Vitro Frequency (% CD4)” value (CD4+ T cells; [4])?
Its value is 0 % CD4 and 0.65 % CD4.

And the “In Vitro Frequency (% CD4)” value (CD4+ T cells; [5])?
Its value is 1.84 % CD4 and 4.22 % CD4 and 2.76 % CD4.

How did the “In Vitro Frequency (% CD4)” value (CD4+ T cells; [3]) turn out when LLGNLLIFPHQFINLRSNNS [VP2P23] was run?
Its value is 1.6 % CD4 and 3.19 % CD4 and 1.58 % CD4.

With NEKQPSDDNWLNFDGTLLGN [VP2P21] as the sequence, how does the “Ex Vivo Frequency (# per 10^6 CD4)” value (RV-specific CD4+ T cells [1]; HLA allele 1*0301 tetramer) read?
The value was 29 # per 10^6 CD4 and 4 # per 10^6 CD4 and 6 # per 10^6 CD4.

What about the Validated (RV-specific CD4+ T cells [1]; HLA allele 1*0301 tetramer) of the same sequence?
Its Validated is “Y”.

And the “Ex Vivo Frequency (# per 10^6 CD4)” value (RV-specific CD4+ T cells [1]; HLA allele 1*0401 tetramer)?
The value was 9 # per 10^6 CD4 and 63 # per 10^6 CD4 and 3 # per 10^6 CD4.

And the Validated (RV-specific CD4+ T cells [1]; HLA allele 1*0401 tetramer)?
The Validated was “Y”.

And the “In Vitro Frequency (% CD4)” value (CD4+ T cells; HLA allele 1*0301 tetramer, peptide-stimulated PBMC cultures)?
Its value is 1.57 % CD4 and 0.87 % CD4.

And the “In Vitro Frequency (% CD4)” value (CD4+ T cells; [4])?
Its value is 5.13 % CD4 and 0.89 % CD4.

And the “In Vitro Frequency (% CD4)” value (CD4+ T cells; [5])?
The value was 0 % CD4 and 0.65 % CD4.

With EITMVPSVAAKDGHIGHIVM [VP1P16] as the sequence, how does the “In Vitro Frequency (% CD4)” value (CD4+ T cells; [6]) read?
Its value is 0.60 % CD4 and 0 % CD4.

Which “In Vitro Frequency (% CD4)” value (CD4+ T cells; [6]) does the source give for RPPRAVQYSHTHTTNYKLSS [VP1P32] here?
Its value is 0.53 % CD4 and 0 % CD4.

What does the source list for “SDDNWLNFDGTLLGNLLIFP [RV-A39 VP2169-188]”?
cytokine profile of expanded RV-specific T cells (RV-specific CD4+ T cells [2]; PMA/ionomycin re-stimulation): a major IFN-γ+IL-4neg population, and minor populations expressing IL-17A and IL-21; expansion of tetramer-positive RV-specific CD4+ T cells after peptide stimulation (RV-specific CD4+ T cells [2]; RV-A16 and RV-A39 VP2 tetramers): induced expansion of both RV-A16- and RV-A39-specific T-cells

How did the “In Vitro Frequency (% CD4)” value (CD4+ T cells; [7]) turn out when ITVSISPMCAEFSGARAKTV [VP2P31] was run?
Its value is 0.37 % CD4 and 0 % CD4.

With SNNSATLIVPYVNAVPMDSM [VP2P25] as the sequence, how does the “Ex Vivo Frequency (# per 10^6 CD4)” value (RV-specific CD4+ T cells [1]; HLA allele 1*1501 tetramer) read?
Its value is 31 # per 10^6 CD4 and 5 # per 10^6 CD4 and 13 # per 10^6 CD4 and 71 # per 10^6 CD4.

What about the Validated (RV-specific CD4+ T cells [1]; HLA allele 1*1501 tetramer) of the same sequence?
The Validated was “Y”.

What about the “In Vitro Frequency (% CD4)” value (CD4+ T cells; [4]) of the same sequence?
The value was 0 % CD4 and 0.46 % CD4.

And the “In Vitro Frequency (% CD4)” value (CD4+ T cells; [7])?
Its value is 2.26 % CD4 and 9.02 % CD4.

How did the “In Vitro Frequency (% CD4)” value (CD4+ T cells; [3]) turn out when TTRNDYAWQSGTNASVFWQH [VP1P20] was run?
The value was 18.7 % CD4 and 0 % CD4 (2×).

SDRIIQITRGDSTITSQDVA [VP2P2] was tested. Which “Ex Vivo Frequency (# per 10^6 CD4)” value (RV-specific CD4+ T cells [1]; HLA allele 1*1101 tetramer) did it give?
The value was 8 # per 10^6 CD4 and 11 # per 10^6 CD4 and 15 # per 10^6 CD4.

And the Validated (RV-specific CD4+ T cells [1]; HLA allele 1*1101 tetramer)?
Its Validated is “Y”.

What about the “In Vitro Frequency (% CD4)” value (CD4+ T cells; [8]) of the same sequence?
Its value is 2.18 % CD4 and 1.22 % CD4 and 2.28 % CD4.

AAKDGHIGHIVMQYMYVPPG [VP1P17] was tested. Which “Ex Vivo Frequency (# per 10^6 CD4)” value (RV-specific CD4+ T cells [1]; HLA allele 1*0404 tetramer) did it give?
The value was 112 # per 10^6 CD4.

What about the “In Vitro Frequency (% CD4)” value (CD4+ T cells; [5]) of the same sequence?
Its value is 2.00 % CD4 and 2.99 % CD4 and 2.60 % CD4.

What does the source list for RGDSTITSQDVANAVVGYGV [VP2P3]?
Ex Vivo Frequency (# per 10^6 CD4) (RV-specific CD4+ T cells [1]; HLA allele 1*0404 tetramer): 36 # per 10^6 CD4 and 1 # per 10^6 CD4 and 38 # per 10^6 CD4 and 5 # per 10^6 CD4; Validated (RV-specific CD4+ T cells [1]; HLA allele 1*0404 tetramer): Y; In Vitro Frequency (% CD4) (CD4+ T cells; [5]): 6.86 % CD4 and 1.61 % CD4

How did the “In Vitro Frequency (% CD4)” value (CD4+ T cells; [3]) turn out when GIFGENMFYHFLGRSGYTVH [VP2P12] was run?
The value was 0.63 % CD4 and 0 % CD4 and 1.23 % CD4.

And the “In Vitro Frequency (% CD4)” value (CD4+ T cells; [8])?
Its value is 1.55 % CD4 and 0 % CD4 and 0.38 % CD4.

For ASKFHQGTLLVVMIPEHQLA [VP2P15], which “In Vitro Frequency (% CD4)” value (CD4+ T cells; [5]) is on record?
Its value is 0.98 % CD4 and 0.81 % CD4.

What about the “In Vitro Frequency (% CD4)” value (CD4+ T cells; [7]) of the same sequence?
The value was 0.55 % CD4 and 0.53 % CD4.

For FTYARFDSEITMVPSVAAKD [VP1P15], which “In Vitro Frequency (% CD4)” value (CD4+ T cells; [6]) is on record?
Its value is 0.26 % CD4 and 0 % CD4.
